Laboratory results taken from US8754233B2, “Pyrazolylbenzothiazole derivatives and their use as therapeutic agents” (Dermira (Canada), Inc., priority 2002, dated 2014).

Columns and labels:
[1] = test system: IFNg on ConA 1° splenocytes; assay: Inhibition of IFNγ release from ConA-stimulated splenocytes; type: cell-based, mouse; conditions: ConA-stimulated Balb/c splenocytes, 18-24 hours, ELISA
Method: T-lymphocytes obtained from mice spleens are a suitable sample for studying the activation properties of this immunologically important cell type. T-lymphocytes are the main regulators for inflammation. Concanavalin A (ConA) is an effective activator of T-lymphocytes, which allows T-lymphocytes to proliferate and produce inflammatory cytokines, such as Interferon (IFNγ) and regulatory cytokines, such as Interleukin 10 (IL-10).
The spleens were transferred onto mesh screen containing 10 ml of ice cold RPMI-5 (1× sodium pyruvate and 5% FBS) and gently ground with a pestle. The cell suspensions were centrifuged at 1500 rpm for 6 minutes at 4° C. […] The supernatant was discarded and the pellet washed two additional times. The cells were resuspended in RPMI-5 and the cell suspensions combined. The cells were counted and their concentration was adjusted to 2.8×10^6 cells/ml using RPMI-5.
(§1) The working concentration of ConA was […]. A 20× working concentration of Concanavalin A was […] was prepared using RPMI-5. The test compounds, dimethylsulfoxide (DMSO) negative vehicle control and staurosporine positive control were diluted twenty times using RPMI-5. Ten μL each of DMSO and staurosporine were combined with 180 μl of medium containing splenocytes in the wells, and 10 μl of 50 μg/ml ConA was immediately added. Medium without ConA was added to the control wells. […] The plates were incubated at 37° C. in 5% CO2 in humidified conditions overnight (18-24 hours) for INFγ.
At the completion of the stimulation described above, the plates were spun at 2000 rpm for 10 minutes. The supernatants (100 μl) from each well were transferred to fresh plates for INFγ analysis by ELISA.
INFγ levels in the supernatants from stimulated lymphocytes were determined with PharMingen's OptEIA™ INFγ Kit (PharMingen) according to manufacturer's directions. The data, shown in Table 2 infra, is represented as a percentage of INFγ inhibition by the following formula: INFγ inhibition=100−(AVG treatment/AVG DMSO control)*100.

K5P5 podocyte cell line = assay: Survival assay in podocytes (PAN treatment, MTS); type: cell-based, murine; conditions: for IC50: Mus musculus, PAN treated, MTS; for % Survival: PAN treated K5P5 podocytes
Excerpt: The treatment of glomerular visceral epithelial cells (podocytes) with high concentrations of puromycin aminonucleoside (PAN) causes significant cytotoxic effects. An assessment of cell viability subsequent to a cytotoxic exposure can be judged qualitatively by examining changes in cell phenotype after staining with crystal violet or determined quantitatively by employing a cytotoxic assay using the soluble tetrazolium salt [3-(4,5-dimethylthiazol-2-yl)-5-(3-carboxymethoxyphenyl)-2-(4-sulfophenyl)-2H-tetrazolium, inner salt] (MTS). Such a system can be used to evaluate the survival effects that ILK compounds have on podocytes following exposure to PAN or other cytotoxic agents.
The cell line employed for the podocyte model was the murine K5P5. […] The cells should be propagate to a maximum of 20 passages.
The flasks were incubated at 37° C., 5% CO2 for 3 days.
The flasks were incubated at 37° C., 5% CO2 for 4 days.
Cells were trypsinized (0.25%), collected from the tissue culture flasks centrifuged, resuspended and counted. […] The flasks were incubated at 37° C., 5% CO2 for 3 days.
10 μl of this 10× compound solution is added to the 80 μl of cells already present in the 96-well plates. For cell undergoing cytotoxic treatment, puromycin aminonuceloside (PAN, Sigma P7130) was added at a 10× concentration to 90 μl of cells. The positive control is PAN treatment without compound. The negative control is 100% DMSO diluted to the same factor as the compounds without PAN.
The plates are incubated at 37° C., 5% CO2 for 48 to 72 hours depending on the PAN concentration (i.e. lower concentrations of PAN required a longer incubation period). The medium is aspirated after plates are spun at 2400 rpm for 10 min at ambient temperature. 100 μl of 1×DPBS (without CaCl2, without MgCl2) is added to each well.
The MTS (Promega) is prepared under low lighting conditions by dissolving 4.0 g of MTS in 1.8 I of 1×DPBS. The solution is allowed to sit for 10 minutes and pH adjusted to 6.2. […] Absorbance is measured at 490 nm wavelength with a microplate reader.

MCP1 on HUVECS = assay: Inhibition of MCP-1 release from TNFα-stimulated HUVEC; type: cell-based, human; conditions: Homo sapiens, 18-24 hours, ELISA
Excerpt: The activation of endothelial cells by pro-inflammatory cytokine TNF-α leads to the production of several chemokines. The release of these chemokines play an important role in leukocyte trafficking and extravasation of leukocytes into tissue during inflammation. MCP-1 and IL-8 are among the chemokines released upon stimulation of human endothelial cells (HUVECs) by TNFα, and contribute to migration of monocytes to the sites of inflammation. Cells should not be passaged more than 6 times.
Cells were maintained and grown in tissue culture flasks (T75) in endothelial cell growth medium (EGM, Clonetics) containing 5 additional supplements (EGM-5) in medium [human recombinant endothelial growth factor (hEGF), hydrocortisone (HC), bovine brain extract (BBE), fetal bovine serum (FBS) and Gentamycin (GA)] incubated at 37° C., 5% CO2. The cells should be propagated a maximum of 20 passages.
The plates were incubated overnight at 37° C., 5% CO2 to enable the cells to attach and grow.
The working concentration of TNFα was 1,000 pg/ml. A twenty times working concentration of TNFα was 20,000 pg/ml was prepared using EGM-5. The test compounds, DMSO negative vehicle control and staurosporine positive control were diluted 20× using EGM-5. Ten μL each of the compounds, DMSO and staurosporine were combined with 180 μl of medium containing HUVEC cells. Immediately following the addition of the compounds, 10 μl of […] TNFα was added to the wells. Medium without TNFα was added to the control wells. […] The plates were incubated at 37° C. in 5% CO2 in humidified conditions overnight (18-24 hours) for TNFα.
At the completion of the stimulation, the plates were spun at 2000 rpm for 10 minutes. The supernatants from each well were transferred to fresh plates for MCP1 analysis by ELISA.
[…] were determined with PharMingen's OptEIA™ MCP1 Kit (PharMingen) according to manufacturer's instructions.
The data is represented as a percentage of MCP1 inhibition by the following formula: % MCP1 inhibition=100−(AVG treatment/AVG DMSO control)*100.

TNFa on macrophages = assay: Inhibition of TNFα release from stimulated macrophages; type: cell-based, mouse; conditions: Mus musculus, Macrophage; LPS and IFN-γ stimulated primary macrophages, ELISA
Method: Peritoneal exudate macrophages were isolated by peritoneal lavage with ice-cold sterile physiological saline 24 hours after intraperitoneal injection of BALB/c mice with 0.5 mL of sterile Zymosan A (1 mg/0.5 mL 0.9% saline). […] Murine primary macrophage will get activated following incubation with LPS in the presence of sub-optimal doses of IFN-γ. […] TNF-αlevels in the supernatants from stimulated macrophages were determined with PharMingen's OptEIA TNF-α kit (PharMingen). The experiment was performed at room temperature, about 21° C., unless otherwise stated. The microwells (F8 MaxiSorp™ Loose/Nunc-Immuno Module; Gibco/BRL) were coated with 100 μl/well of capture antibody (at the recommended concentration) and incubated overnight at 4° C. […] Next, the solution was removed and the plates were washed 5× with wash buffer. The TNF-αanalysis was initiated by adding duplicate samples (100 μl/well) or standards (100 μl/well) in diluent buffer which were incubated for 2 h. The solution was removed and the plates washed 5× with wash buffer. Enzyme reagent (100 μl) containing biotinylated mouse TNF-αmonoclonal antibody and avidin-horseradish peroxidase conjugate (at concentrations recommended by the manufacturer) was added to each well. The plate was incubated for 1 hour, the solution removed, and the plates washed 7× with wash buffer. […] Colour development was terminated by adding 50 μl of 2N H2SO4. […] Peritoneal exudate macrophages were isolated by peritoneal lavage with ice-cold sterile physiological saline 24 hours after intraperitoneal injection of BALB/c mice with 0.3 ml of sterile zymosan A (1 mg/0.5 mL 0.9% saline). […] All treatments were replicated six times. Cells were incubated for an additional 24 hours, and cell free culture supernatants from each well were collected for NO and cytokine determination. The remaining cells were stained with crystal violet to determine effect of the compound on cell survival.

macrophages = assay: Survival of macrophages; type: cell-based, mouse; conditions: Mus musculus, Macrophage; stimulated primary macrophages
Method: Peritoneal exudate macrophages were isolated by peritoneal lavage with ice-cold sterile physiological saline 24 hours after intraperitoneal injection of BALB/c mice with 0.3 ml of sterile zymosan A (1 mg/0.5 mL 0.9% saline). […] 1.5×10^5 cells/well were seeded in 96-well plates and followed by 3 hour incubation at 37° C. with 5% CO2 (macrophages were allowed to attach) cells were stimulated with LPS ([…]/mL) and IFN-γ (100 U/mL) in the absence or presence of the test compounds. All treatments were replicated six times. Cells were incubated for an additional 24 hours, and cell free culture supernatants from each well were collected for NO and cytokine determination. The remaining cells were stained with crystal violet to determine effect of the compound on cell survival.

ConA 1° splenocytes = assay: Survival of ConA 1° splenocytes (cytotoxicity by MTS staining); type: cell-based, mouse; conditions: ConA-stimulated splenocytes
Method: as §1
(MTS). The MTS solution was made fresh and under low light. The electron coupling reagent phenazine methosulfate (PMS) was added at the time of the assay. Twenty μL of MTS solution per 100 μl of tissue culture medium was added to each well. The plates were incubated 37° C. for 4 hours for unstimulated and 18-24 ConA stimulated splenocytes. The absorbance was read at 490 nm wavelength. A kit available to do this assay is “CellTiter 96® AQ Kit AQueous Kit (G5421)” by Promega.

Structure (SMILES): CNS(=O)(=O)c1cc2sc(-c3c(N)n[nH]c3C)nc2cc1F [2-(3-Amino-5-methyl-1H-pyrazol-4-yl)-5-fluorobenzothiazole-6-sulfonic acid methylamide]
- IC50 ([1]; Mus musculus, Splenocyte): 0.368 µM

Structure (SMILES): CNS(=O)(=O)c1ccc2nc(-c3c(N)n[nH]c3C)sc2c1 [2-(3-Amino-5-methyl-1H-pyrazol-4-yl)benzothiazole-6-sulfonic acid methylamide]
- IC50 (K5P5 podocyte cell line): 12.5 µM

Structure (SMILES): Cc1n[nH]cc1-c1nc2ccccc2s1 [2-(3-Methyl-1H-pyrazol-4-yl)-benzothiazole]
- IC50 (MCP1 on HUVECS): > 25 µM
- IC50 (TNFa on macrophages): > 25 µM
- IC50 (macrophages): > 25 µM

Structure (SMILES): Cc1n[nH]c(N)c1-c1nc2cc(F)c(S(N)(=O)=O)cc2s1 [2-(5-Amino-3-methyl-1H-pyrazol-4-yl)-5-fluoro-benzothiazole-6-sulfonic acid amide]
- IC50 (TNFa on macrophages): 0.9 µM
- % Survival (K5P5 podocyte cell line; @ 12.5 μM): 30%

Structure (SMILES): Cc1n[nH]c(N)c1-c1nc2cc(F)c(S(=O)(=O)NCCO)cc2s1 [2-(5-Amino-3-methyl-1H-pyrazol-4-yl)-5-fluorobenzothiazole-6-sulfonic acid (2-hydroxy-ethyl)-amide]
- IC50 (ConA 1° splenocytes; Mus musculus, Splenocyte): > 25 µM
- % Survival (K5P5 podocyte cell line; @ 25 μM): 30%

Structure (SMILES): Nc1n[nH]c(CCCO)c1-c1nc2ccccc2s1 [3-(5-Amino-4-benzothiazol-2-yl-2H-pyrazol-3-yl)-propan-1-ol]
- IC50 (MCP1 on HUVECS): ~25 µM
- IC50 (TNFa on macrophages): > 25 µM

Structure (SMILES): COc1cc2sc(-c3c(-c4ccco4)n[nH]c3N)nc2cc1F [4-(5-Fluoro-6-methoxybenzothiazol-2-yl)-5-furan-2-yl-2H-pyrazol-3-ylamine]
- IC50 (K5P5 podocyte cell line): 2.5 µM

Structure (SMILES): COc1cc2sc(-c3c(-c4ccncc4)n[nH]c3N)nc2cc1F [4-(5-Fluoro-6-methoxybenzothiazol-2-yl)-5-pyridin-4-yl-2H-pyrazol-3-ylamine]
- IC50 (MCP1 on HUVECS): > 25 µM
- IC50 (TNFa on macrophages): > 25 µM
- IC50 (macrophages): > 25 µM
- IC50 (ConA 1° splenocytes; Mus musculus, Splenocyte): > 25 µM

Structure (SMILES): Cc1cc2sc(-c3cn[nH]c3N)nc2cc1F [4-(5-Fluoro-6-methylbenzothiazol-2-yl)-2H-pyrazol-3-ylamine]
- IC50 ([1]; Mus musculus, Splenocyte): > 25 µM
- IC50 (ConA 1° splenocytes; Mus musculus, Splenocyte): > 25 µM

Structure (SMILES): Cc1n[nH]c(N)c1-c1nc2ccc(CN(C)C)cc2s1 [4-(6-Dimethylaminomethylbenzothiazol-2-yl)-5-methyl-2H-pyrazol-3-ylamine]
- IC50 (K5P5 podocyte cell line): 12.5 µM

Structure (SMILES): Nc1n[nH]cc1-c1nc2ccc(F)cc2s1 [4-(6-Fluorobenzothiazol-2-yl)-1H-pyrazol-3-ylamine]
- IC50 (MCP1 on HUVECS): ~25 µM
- IC50 (TNFa on macrophages): > 25 µM
- IC50 (macrophages): > 25 µM

Structure (SMILES): COc1ccc2nc(-c3c(N4CCNCC4)n[nH]c3N)sc2c1 [4-(6-Methoxybenzothiazole)-5-piperizin-1-yl-2H-pyrazol-3-ylamine]
- IC50 [1]: 5.9 µM
- IC50 (ConA 1° splenocytes): 20.5 µM

Structure (SMILES): Nc1[nH]nc(N2CCNCC2)c1-c1nc2ccccc2s1 [4-Benzothiazol-2-yl-5-piperazin-1-yl-2H-pyrazol-3-ylamine]
- IC50 (TNFa on macrophages): > 25 µM
- IC50 (macrophages): > 25 µM

Structure (SMILES): CNCc1ccc2nc(-c3c(C)n[nH]c3N)sc2c1 [5-Methyl-4-(6-methylaminomethylbenzothiazol-2-yl)-2H-pyrazol-3-ylamine]
- IC50 ([1]; Mus musculus, Splenocyte): 0.5 µM
- IC50 (ConA 1° splenocytes; Mus musculus, Splenocyte): 0.9 µM

Structure (SMILES): COc1cc2sc(-c3c(NCCCN(C)C)n[nH]c3N)nc2cc1F [N^3-(3-Dimethylaminopropyl)-4-(5-fluoro-6-methoxybenzothiazole)-1H-pyrazole-3,5-diamine]
- IC50 [1]: 10.2 µM
- IC50 (ConA 1° splenocytes): ~25 µM
